This data set is described as follows: gradient 5% acetonitrile 3 min, to 50% in 2 min, to 85% in 15 min, held 3 min, 100 µL/min. Particulars: column: Zorbax Extend-C18 2.1 x 50 mm; eluents: water / acetonitrile, 0.1% formic acid. The procedure, abridged: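 Retention times come from adduct peaks that were picked computationally and then checked by hand. The standards, pure and pooled in mixtures of ~100 molecules, were run on a Zorbax Extend-C18 column (2.1 × 50 mm, 1.8 μm) at 100 μL/min with water and acetonitrile, each with 0.1% formic acid. Detection was by quadrupole time-of-flight mass spectrometry in positive and negative ionization mode, with a dead volume of 40 μL and a dwell volume of 900 μL.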
In turn, `COc1ccc(-c2ncc3c(n2)CCN(S(=O)(=O)c2ccc(F)c(Cl)c2)C3)cc1` returned an RP-LC retention time of 1130 s.
The compound `O=c1cccnn1CCNS(=O)(=O)c1cccnc1` returned an RP-LC retention time of 565 s.
The result for `O=c1ccn(-c2cccc(F)c2)nc1-c1nc(-c2ccc(F)c(Cl)c2)no1` reads 984 s; that for `Cc1cccc([N+](=O)[O-])c1NC(=O)C1CCCN(c2ccc(-n3cccn3)nn2)C1` (stereo not drawn), 711 s.
The result for `Cn1nc(C(=O)N2CCCCC2)c2c1CCN(C(=O)CCC(=O)NCCCN1CCCCC1)C2` reads 579 s; that for `CC(C)N1C(=O)C2(CCCC2)C1C(=O)NCC1CCCCC1` (stereo not drawn), 775 s.
The result for `O=S(=O)(NCC(c1ccccc1)S(=O)(=O)c1cccs1)c1cccs1` (stereo not drawn) reads 878 s.
In turn, `COc1ccc(NC(=O)CSc2nc(N3CCCCC3)nc3ccccc23)cc1Cl` returned an RP-LC retention time of 756 s.
The result for `Clc1cccc(-n2cc(-c3noc(-c4ccc5c(c4)OCO5)n3)nn2)c1` reads 1100 s; that for `COc1ccc(CC(=O)Nc2c(-c3ccc(F)cc3)nc3ccccn23)cc1OC`, 597 s; that for `Nc1nc2ccc(Cl)cc2c2nc(-c3ccco3)nn12`, 755 s.
The result for `O=C1NC2=C(C(=O)CCC2)C(c2cccc([N+](=O)[O-])c2)N1` (stereo not drawn) reads 606 s; that for `COc1ccc(NC(=O)N2CCC3(C2)C(=O)N(C)c2ccc(OC)cc23)cc1` (stereo not drawn), 732 s; that for `COc1ccc(-c2cn3c(CC(=O)N4CCN(c5cccc(Cl)c5)CC4)csc3n2)cc1OC`, 835 s.
The result for `O=C(CN1C(=O)c2ccccc2C1=O)Nc1nnc(C2COc3ccccc3O2)o1` (stereo not drawn) reads 714 s; that for `COc1ccc(Cl)cc1S(=O)(=O)NCC1CCN(C(=O)c2ccccc2F)CC1`, 686 s; that for `CCOC(=O)CNC(=O)N1CCN(Cc2nc3cccnc3n2-c2ccc(CC)cc2)CC1`, 654 s.
Take `Cc1oc2ccn(Cc3ccc(F)cc3)c(=O)c2c1C(=O)NCc1cc(F)ccc1F`: the RP-LC retention time came out at 1130 s.
For `Cc1ccc(C)c(NC(=O)Cn2nc3cc(-c4ccccc4)nc(C)n3c2=O)c1` the value was 961 s; for `CC(=O)c1ccc(Nc2c(C(=O)OC(C)C)cnc3nc(C)ccc23)cc1`, 616 s.
The result for `CCn1c(C(=O)N2CCN(c3ncccn3)CC2)cc2cc(S(=O)(=O)N(C)C)ccc21` reads 830 s; that for `O=C(Nc1nc2c(s1)COc1ccccc1-2)c1cc(Cl)ccc1Cl`, 1030 s.
For `COc1ccc(NC(=O)N2CC(N(C(=O)NC(C)C)C3CCOCC3)C2)cc1OC` the value was 598 s; for `O=C(CC1CCN(C(=O)Nc2ccc(F)cc2)CC1)N1CCCCC1`, 740 s.
For `CC(=O)N1CCc2cc(-c3ccc(C(=O)N4CCN(C(=O)c5ccco5)CC4)cc3)ccc21`, the RP-LC retention time was found to be 662 s.
The result for `Cn1nnnc1SCC(=O)NCCn1nc(-c2ccco2)ccc1=O` reads 592 s; that for `Cc1nc2cccnc2n1C1CCN(C(=O)Nc2ccc3c(c2)CCC3)C1` (stereo not drawn), 620 s.
For `CC(=O)Nc1onc(C)c1-c1ccc(C)c(S(=O)(=O)N2CCN(C3CCCCC3)CC2)c1` the value was 629 s; for `CC(C)Cn1nc2n(c1=O)CCN(S(=O)(=O)Cc1ccccc1)CC2`, 777 s; for `CCN1CCN(c2c(S(=O)(=O)c3ccc(C)c(C)c3)cnc3ccc(OC)cc23)CC1`, 679 s.
For `O=S(=O)(NCC(O)(c1ccccc1)C(F)(F)F)c1cc(F)ccc1F` (stereo not drawn) the value was 870 s; for `CCOc1ccc(S(=O)(=O)N2CC(=O)N(C3CCCC3)C3(CCCCC3)C2)cc1`, 1230 s.
`COC[C@@H]1CN(S(=O)(=O)c2cccnc2)C[C@H]1c1ccncc1` came in with an RP-LC retention time of 652 s.
The compound `Cc1nn(C)c(C)c1S(=O)(=O)N1CCC(Cc2nncn2-c2ccccc2)CC1` returned an RP-LC retention time of 671 s.
The result for `O=C(Nc1ccc(F)c(Cl)c1)N1CCC(N2CCN(Cc3cccc(F)c3)C(=O)C2=O)CC1` reads 798 s; that for `COc1ccccc1N1CCN(CC(=O)NC2CCSC2=O)C1=O` (stereo not drawn), 621 s.
The result for `Cc1cc(C)c2[nH]c3c(c(=O)c2c1)CN(CC(=O)Nc1ccccc1)CC3` reads 627 s.
The result for `Cc1ccc(NC(=O)c2nc(C(C)C)oc2C)c(C)c1` reads 1190 s; that for `O=C(c1ccncc1)N1CCC2(CC1)N=C(c1ccc(Cl)cc1)NO2`, 625 s.
Compound `Cc1c(F)cccc1NC(=O)N1CCCC1c1nncn1-c1ccccc1` (stereo not drawn) registered an RP-LC retention time of 744 s.
As to `O=C(O)c1cc2cc(Cc3cccnc3)ccc2o1`, the RP-LC retention time was 592 s.
The result for `CCN1C(=O)c2cccnc2Sc2cc(C(=O)N3CCC(C)CC3)ccc21` reads 798 s; that for `COC1CCC12CCN(S(=O)(=O)c1ccc(C)c(F)c1)CC2` (stereo not drawn), 1090 s.
For `O=C(CCC1CCCC1)NCCC1CCN(C(=O)Nc2ccccc2)CC1` the value was 876 s; for `COc1ccc(CN2CCc3nc(N4CCN(c5ccccc5OC)CC4)ncc3C2)cc1`, 762 s.
For `CC1(C)CC[C@]2(C(=O)n3ccnc3)CC[C@]3(C)[C@H](C(=O)C=C4[C@@]5(C)C=C(C#N)C(=O)C(C)(C)[C@@H]5CC[C@]43C)[C@@H]2C1` the value was 1260 s; for `O=C(NCc1ccc(Br)cc1)C1CCN(c2cncnc2N2CCCC2)CC1`, 704 s; for `COc1ccc(N2C(=O)N[C@@H]3C[C@]2(C)Oc2ccc(C)cc23)c(OC)c1`, 870 s.
`Cc1cc(C)n(CC(=O)N2CCC(c3nc(-c4ccncc4)no3)C2)n1` (stereo not drawn) showed an RP-LC retention time of 839 s.
For `COc1ccc2c(c1)C1(CCN(C(=O)c3cccc(C)c3)C1)C(=O)N2C` (stereo not drawn) the value was 823 s; for `O=C(NCc1cccs1)C(=O)c1cccn1Cc1ccc(F)cc1`, 1010 s; for `O=C(Nc1cccn2nc(C3CC3)nc12)c1cccs1`, 788 s.
For `CCCN(C(=O)c1ccccc1)c1nc(-c2ccccc2)cs1` the value was 1310 s; for `O=C(Cn1nc2n(c1=O)CCCCC2)Nc1ccc(C(F)(F)F)cc1`, 764 s; for `Cn1c(=O)c2c(C(=O)NCC3CCN(Cc4cccc(Cl)c4)CC3)cc(=O)n(C)c2n(C)c1=O`, 632 s.
The result for `O=C(NCCN1CCCCC1)C1CCCN(c2ncc(-c3cccc(F)c3)cn2)C1` (stereo not drawn) reads 696 s.
`Cc1ccc(Nc2nc(C)cc(N3CCN(S(=O)(=O)c4cc(C(C)C)ccc4C)CC3)n2)cc1` registered an RP-LC retention time of 950 s.
The result for `O=c1ccc(-c2ccncc2)nn1CCCNS(=O)(=O)c1cccs1` reads 571 s; that for `Cn1c(C(=O)Nc2ccc(N3CCOCC3)cc2)cc2c1CCN(Cc1ccccc1)C2`, 618 s.
For `COCCN1CCC(N2CCCN(C(=O)Cc3c[nH]c4ccccc34)CC2)C1=O` (stereo not drawn) the value was 576 s.
For `CC(C)C(NC(=O)c1cccc(C#N)c1)C(=O)N1CCN(c2ccccn2)CC1` (stereo not drawn), the RP-LC retention time stood at 620 s.
The result for `COc1cc(CNC(=O)c2cn3ccc(C)cc3n2)cc(OC)c1` reads 632 s; that for `Cc1cc2c(cc1S(=O)(=O)N(C)CC(=O)N1CCN(c3ccccn3)CC1)OC(C)C(=O)N2` (stereo not drawn), 587 s.
Consider `O=C(NC1CCCN(c2cc(N3CCCC3)ncn2)C1)c1ccccn1` (stereo not drawn), for which the RP-LC retention time was 606 s.
For `COCCCNC(=O)c1cc(-c2ccccc2)nc2n[nH]c(-c3ccccc3)c12` the value was 769 s; for `COCCNCc1ccc(-c2cc(Cl)cc(Cl)c2)o1`, 722 s; for `Cc1ccc(-c2nc3cnccn3c2Nc2ccc(C(=O)NCc3ccco3)cc2)cc1`, 753 s.
`CN(C(=O)CC(=O)Nc1ccc2nc3n(c(=O)c2c1)CCCCC3)c1cccc(C(F)(F)F)c1` registered an RP-LC retention time of 771 s.
The result for `COC(=O)c1cccc(C(=O)Nc2ccccc2)n1` reads 800 s; that for `CN1CCN(C2CCN(C(=O)Nc3cc(Oc4ccc(NC(=O)C5(C(=O)Nc6ccc(F)cc6)CC5)c(F)c4)ccn3)CC2)CC1`, 659 s.
The result for `COCCNc1c(C(=O)OC)c(=O)[nH]c2c(Cl)cccc12` reads 645 s; that for `CCCCS(=O)CC(CO)NC(=O)/C=C/c1c(C)[nH]c(=O)[nH]c1=O` (stereo not drawn), 569 s; that for `Cn1nc(-c2nnc(-c3ccc(F)cc3)o2)c2c1CCN(C(=O)Nc1ccccc1)C2`, 833 s.
The result for `Cc1ccc(NS(=O)(=O)c2cc3n(c2)CCN(C)C3=O)cc1F` reads 716 s; that for `Cc1cc(C)n(-c2c(C)c(C)nc3c(-c4ccccc4)cnn23)n1`, 947 s.
As to `CCOC(=O)c1cc(S(=O)(=O)N2CCCC2C(=O)Nc2cccc3c2CCCC3)cn1C` (stereo not drawn), the RP-LC retention time amounted to 1060 s.
With `COc1cc(NC(=O)N2CC(C)Sc3ccccc32)cc(OC)c1OC` (stereo not drawn), the RP-LC retention time was 961 s.
For `COc1ccccc1C(=O)Nc1ccc2nc(N3CCN(C4CCCCC4)CC3)cc(C(=O)O)c2c1` the value was 638 s.

These data come from the METLIN SMRT retention time set (Domingo-Almenara et al. 2019).
